Legend:
Lycopersicum esculentum = experiment: Cultivation of Lycopersicum esculentum with GSSG or GSH, sensory tests of fruit (Example 1); format: in vivo; details: 50 mL of 0.5 mM at root twice a week, 60 days
Text: In the present example, Lycopersicum esculentum was cultivated with use of GSSG or GSH. Details of cultivation are described below.
First, Lycopersicum esculentum seedlings (TAKII & CO. Ltd., product name: Osama tomato reika) were transplanted into a hydroponic culture pot ( 1/2000 a). In the hidroponic culture pot, 6 L of vermiculite (ASAHI INDUSTRIES Co., LTD.), 3 L of KUREHA horticultural soil (KUREHA CORPORATION), and 3 L of vermiculite were layered as a lower, middle, and upper layers, respectively.
During the cultivation of Lycopersicum esculentum, 50 mL of 0.5 mM GSSG or 0.5 mM GSH (adjusted with 0.1N NaOH to be at pH 7) was applied twice a week at a root per plant. The Lycopersicum esculentum plants were grown for 60 days without being subjected to bud removal. Last 10 days was used as a harvest period for harvesting fruit of the plants. For comparison, a Lycopersicum esculentum plant was grown under the same condition, except that GSSG and GSH were not applied. To the plants of any condition, 3 g of Kumiai phosphorate ammonium nitrate potassium S-604 (Chisso Asahi Fertilizer Co., Ltd.) was applied as an additional fertilizer once in 2 weeks.
(§1) Next, the fruit harvested was subjected to sensory tests of sugar content and the like. As a result, it was determined that fruit of the plant applied with GSSG increased in sugar content compared to that of the plant not applied with GSSG or GSH. Further, it was determined that the plant applied with GSSG increased in number of fruit. It was determined that fruit of the plant applied with GSH increased in sugar content and acidity.

Fragaria ananassa = experiment: Cultivation of Fragaria ananassa with GSSG or GSH, sensory tests of fruit (Example 10); format: in vivo; details: 63 days
Description: In the present example, Fragaria ananassa was cultivated with use of GSSG or GSH. Details of cultivation are described below.
First, Fragaria ananassa seedlings were transplanted to a planter. In the planter, 6 L of vermiculite (ASAHI INDUSTRIES Co., LTD.), 3 L of KUREHA horticultural soil (KUREHA CORPORATION), and 3 L of vermiculite were layered as a lower, middle, and upper layers, respectively.
During cultivation of Fragaria ananassa plants, 50 mL of 0.2 mM or 0.5 mM GSSG or 50 mL of 0.4 mM or 0.5 mM GSH (adjusted with 0.1N NaOH to be at pH7) was applied once a week at a root per plant. The plants were grown for 63 days without being subjected to bud removal. For comparison, a Fragaria ananassa plant was grown under the same condition, except that GSSG and GSH were not applied. To the plants of any condition, 3 g of Kumiai phosphorate ammonium nitrate potassium S-604 (Chisso Asahi Fertilizer Co., Ltd.) was applied as an additional fertilizer once in 2 weeks.
as §1, with “sugar content and decreased in acidity compared to” for “sugar content compared to”, “It was also determined that” for “It was determined that”

oxidized glutathione [GSSG]
number of fruit (Lycopersicum esculentum): increased
sugar content of fruit (sensory test) (Lycopersicum esculentum; compared to plant not applied with GSSG or GSH): increased
number of fruit (Fragaria ananassa; 50 mL of 0.2 or 0.5 mM GSSG once a week at root): increased
acidity of fruit (sensory test) (Fragaria ananassa; 50 mL of 0.2 or 0.5 mM GSSG, or 0.4 or 0.5 mM GSH, once a week at root): decreased
sugar content of fruit (sensory test) (Fragaria ananassa; 50 mL of 0.2 or 0.5 mM GSSG, or 0.4 or 0.5 mM GSH, once a week at root, vs plant not applied): increased
